The text below walks through data of patent publication US8450333B2, “Molecules for regulating cell death” (The Regents of The University of California, priority 2003, dated 2013).

The target in one experiment is T1, dynamin-1 (Homo sapiens, UniProt Q05193).
T1 sequence (Q05193 1-864): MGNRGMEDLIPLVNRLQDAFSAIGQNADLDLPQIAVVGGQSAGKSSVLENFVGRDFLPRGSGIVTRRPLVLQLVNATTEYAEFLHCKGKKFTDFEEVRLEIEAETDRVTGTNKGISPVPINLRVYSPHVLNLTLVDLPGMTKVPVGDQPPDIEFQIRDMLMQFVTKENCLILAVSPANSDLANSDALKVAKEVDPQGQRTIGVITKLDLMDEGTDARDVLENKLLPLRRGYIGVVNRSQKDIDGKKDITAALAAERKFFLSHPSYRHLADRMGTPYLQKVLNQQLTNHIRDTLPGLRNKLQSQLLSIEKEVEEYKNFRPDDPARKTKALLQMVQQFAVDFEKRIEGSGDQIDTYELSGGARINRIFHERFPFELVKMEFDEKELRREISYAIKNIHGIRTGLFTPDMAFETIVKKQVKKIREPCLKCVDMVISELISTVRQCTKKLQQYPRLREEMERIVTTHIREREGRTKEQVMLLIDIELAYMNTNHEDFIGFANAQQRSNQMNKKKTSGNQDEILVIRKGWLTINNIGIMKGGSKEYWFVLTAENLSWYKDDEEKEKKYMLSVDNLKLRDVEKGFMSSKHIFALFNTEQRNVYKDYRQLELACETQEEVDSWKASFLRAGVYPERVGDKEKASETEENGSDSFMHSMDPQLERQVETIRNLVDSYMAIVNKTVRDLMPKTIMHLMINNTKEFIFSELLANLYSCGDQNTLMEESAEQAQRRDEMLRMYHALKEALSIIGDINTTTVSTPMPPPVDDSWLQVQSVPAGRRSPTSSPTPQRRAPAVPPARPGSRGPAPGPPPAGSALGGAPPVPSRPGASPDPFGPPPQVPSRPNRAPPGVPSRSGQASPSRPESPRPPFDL
In words: Assembly-stimulated GTP hydrolysis by dynamin-1. The format is biochemical. From the text:
Our observations raise the question of whether mfisi-1 is simply a general inhibitor of GTPase super family members and/or DRPs. It seems unlikely that mfisi-1 is an inhibitor of all GTPase superfamily members, given that it has no effect on GTPase-dependent activities, such as maintenance of the actin cytoskeleton. To more directly address this question, however, we examined the effects of mfisi-1 on the DRP, dynamin-1, which functions during endocytosis in the scission of clathrin coated pits from the plasma membrane. […] We will continue to explore the specificity of mfisi-1 for DRPs by determining its effects on the mammalian Dnm1 ortholog, Drp1. […] Taken together, our data are consistent with mfisi-1 functioning in vivo as a selective inhibitor of the dynamin-related GTPase, Dnm1, to block mitochondrial fission.

Experiment [1] relates to actin cytoskeleton and peripheral ER network. In words: Actin cytoskeleton and peripheral ER network in yeast. The note with it: 100 μM, versus DMSO-treated cells, n=50. The format is cell-based. From the text:
These structures are routinely examined in yeast mitochondrial morphology mutants as a test for the specificity of the mitochondrial phenotype.

For another experiment, the system named is Δdnm1 cells. In words: Mitochondrial morphology in Δdnm1 yeast cells. Type of experiment: cell-based. From the text:
(§1) Formally, the small molecules we identified could produce their phenotypes by either inhibiting or activating fission or fusion. To distinguish the exact effects of mfisi-1 and other small molecules identified in our screens on mitochondrial dynamics, we have directly measured the rates of fission and fusion events after drug addition in yeast cells by examining the behavior of mitochondria using time-lapse fluorescence microscopy. […] In contrast, in DMSO treated control cells, both fission and fusion events were easily detected in the same time frame.
To determine the target of mfisi-2, we will characterize this small molecule using the assays for fission. We will also determine whether mfisi-2 affects mitochondrial morphology in mammalian cells. If this is the case, then mfisi-2 might inhibit mitochondrial fission by affecting conserved fission-related activities. […] If mfisi-2 produces mitochondrial net-like structures in mammalian cells, we will determine its effects on apoptosis as described previously. Prioritization and characterization of potential mitochondrial fusion inhibitors In our screens for mitochondrial fusion inhibitors, we identified a total of 37 compounds. […] To determine whether fragmentation in drug-treated cells is strictly dependent upon Dnm1-dependent fission, we determined the effects of these small molecules on mitochondrial morphology in Δdnm1 cells. […]

In a further experiment the test system is wild type yeast cells. In words: Mitochondrial morphology in yeast (secondary screen, mitochondrial targeted GFP). Type of experiment: cell-based, S. cerevisiae. From the text: Secondary screens: Compounds identified in the primary growth assay-based screens outlined above are screened secondarily by examining their effects on mitochondrial morphology. We use the steady state structure of mitochondria as an indicator of the relative rates of mitochondrial fission and fusion in cells. […] Mitochondria are visualized using a mitochondrial targeted GFP that is efficiently targeted to both wild type and respiratory deficient mitochondria (Tieu et al., 2000 The Journal of Cell Biology 151, 353-365.).
All compounds identified in the primary growth assay-based screens outlined above were screened secondarily by examining their effects on mitochondrial morphology in yeast. From previous work, we know that the steady state structure of mitochondria is an indicator of the relative rates of mitochondrial fission and fusion in cells (FIG. 7). Specifically, net-like structures indicate a block in fission, and fragmented mitochondrial structures indicate a block in fusion. […] In this secondary assay, small molecules were judged to be a hit if they produced a mutant phenotype in greater than 5% of the cell population.
To determine what structural features are important for the effects of mfisi-1 on mitochondrial fission, we identified structurally related molecules using a chemoinformatics approach. We utilized web-based ChemNavigator to search available public and commercial compound databases for small molecules that uniquely represented key structural features of mfisi-1. We tested a total of 15 small molecules related to mfisi-1 for their effects on mitochondrial morphology in yeast, each at a concentration of 50 μM (Table 3).

A further experiment relates to yeast cells. In words: Time-lapse fluorescence microscopy of mitochondrial fission and fusion events in yeast. The format is cell-based, S. cerevisiae. The note with it: time-lapse after drug addition.
Excerpt: To distinguish whether compounds specifically affect mitochondrial fission or fusion, we directly measure the rates of these events by examining the behavior of mitochondria using time-lapse fluorescence microscopy after drug addition. We routinely perform this type of experiment using a DeltaVision deconvolution microscope.
as §1

[2] abbreviates: Structure Function Analysis of A1, A2, and A3, fraction of yeast cells.
Setting [3] is: fraction of wild type yeast cells.

SMILES strings stand for the structures. A value given as a limit tells only on which side of the number the result lay.

As to `COc1cc(-n2c(S)nc3ccccc3c2=O)c(Cl)cc1Cl` [mfisi-1, 3-(2,4-Dichloro-5-methoxy-phenyl)-2-mercapto-3H-quinazolin-4-one], the “effect on assembly-stimulated rates of GTP hydrolysis for dynamin-1” value at dynamin-1 is reported as “had no effect”. In addition, the “changes in actin cytoskeleton or peripheral ER network” value in experiment [1] is “did not result in significant changes”. In the experiment on Δdnm1 cells, the “effect on mitochondrial morphology in Δdnm1 cells” value is “did not change the net-like morphology”. The “effect on mitochondrial morphology in yeast cells” value with wild type yeast cells is given as “caused the formation of mitochondrial net-like structures”. The IC50 in the experiment on wild type yeast cells (Saccharomyces cerevisiae, read-out: IC50, formation of net-like mitochondria) lay within 10 to 20 µM. Also, in the experiment with wild type yeast cells (setting [2]), the Fragmented entry was “.05”, the Nets result was “.55” and the Reticular result is given as “.40”. For the same molecule, in the experiment on wild type yeast cells (setting [3]), the “Mitochondrial Morphology after Drug is Added: Fragmented” value was “.05”, the “Mitochondrial Morphology after Drug is Added: Nets” value was “.55” and the “Mitochondrial Morphology after Drug is Added: Reticular” value is recorded as “.40”. The “time after addition until net-like mitochondria form” value in the experiment with wild type yeast cells (wild type cells, sub-μM concentrations) is no more than 1 min. In addition, the “% net-like structures” value in the experiment on wild type yeast cells (yeast, each at a concentration of 50 μM) is recorded as 60%. For the same molecule, in the experiment with yeast cells, the “mitochondrial fission events / rate of fission” value is listed as “no detectable fission events were observed” and the “mitochondrial fusion events / rate of fusion” value is given as “fusion events occurred”.

Usually IC50 stands for the concentration that gives 50% inhibition.
